Results as given in US20240158348A1, “HERBICIDAL CYCLIC AMIDES N-SUBSTITUTED WITH A HALOALKYLSULFONYLANILIDE GROUP” (FMC Corporation, priority 2021, published 2024).

Legend:
Assay type in all cases: in vivo
[1] = test system: corn (Zea mays); test: Test C preemergence, corn; conditions: 0 is no effect, 100 is complete control
Summary of the method: (§1)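 Plants grown in a sand and loam soil blend received the formulated test chemicals either as a preemergence soil-directed spray or postemergence at 2 to 10 cm height. After 10 or 12 greenhouse days, injury was assessed visually, with 100 meaning complete control.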

[2] = test system: goosegrass (Eleusine indica); test: Test C preemergence, goosegrass; conditions: 0 is no effect, 100 is complete control
Summary of the method: as §1

[3] = test system: oat, wild (wild oat, Avena fatua); test: Test C preemergence, wild oat; conditions: 0 is no effect, 100 is complete control
Summary of the method: (§2)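 Herbicidal effect was estimated visually on a 0–100 scale 10 or 12 days after spraying. Formulation: non-phytotoxic solvent mixture with surfactant. Timing: directed soil spray after sowing, or postemergence on seedlings bearing one or two leaves.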

[4] = test system: pigweed, palmer (palmer amaranth, Amaranthus palmeri); test: Test C preemergence, palmer amaranth; conditions: 0 is no effect, 100 is complete control
Summary of the method: as §2

[5] = test system: ryegrass, Italian (Italian ryegrass, Lolium multiflorum); test: Test C preemergence, Italian ryegrass; conditions: 0 is no effect, 100 is complete control
Summary of the method: as §2

[6] = test system: wheat (Triticum aestivum); test: Test C preemergence, wheat; conditions: 0 is no effect, 100 is complete control
[7] = test system: galium (catchweed bedstraw, Galium aparine); test: Test C postemergence, galium; conditions: for Galium plant response rating: visual injury, 0 to 100 scale (0 no effect, 100 complete control); for Plant response rating (0 to 100 scale), Galium: 0 is no effect, 100 is complete control
[8] = test system: horseweed (Erigeron canadensis); test: Test C postemergence, horseweed; conditions: for Horseweed plant response rating: visual injury, 0 to 100 scale (0 no effect, 100 complete control); for Plant response rating (0 to 100 scale), Horseweed: 0 is no effect, 100 is complete control
Summary of the method: as §2

Structure (SMILES) | Plant response rating (0 to 100 scale), Corn ([1]; 31 g ai/ha Preemergence) | Plant response rating (0 to 100 scale), Corn ([1]; 125 g ai/ha Preemergence) | Plant response rating (0 to 100 scale), Goosegrass ([2]; 31 g ai/ha Preemergence) | Plant response rating (0 to 100 scale), Goosegrass ([2]; 125 g ai/ha Preemergence) | Plant response rating (0 to 100 scale), Oat, Wild ([3]; 31 g ai/ha Preemergence) | Plant response rating (0 to 100 scale), Oat, Wild ([3]; 125 g ai/ha Preemergence) | Plant response rating (0 to 100 scale), Pigweed, Palmer ([4]; 31 g ai/ha Preemergence) | Plant response rating (0 to 100 scale), Pigweed, Palmer ([4]; 125 g ai/ha Preemergence) | Plant response rating (0 to 100 scale), Ryegrass, Italian ([5]; 31 g ai/ha Preemergence) | Plant response rating (0 to 100 scale), Ryegrass, Italian ([5]; 125 g ai/ha Preemergence) | Plant response rating (0 to 100 scale), Wheat ([6]; 31 g ai/ha Preemergence) | Plant response rating (0 to 100 scale), Wheat ([6]; 125 g ai/ha Preemergence) | Galium plant response rating ([7]; 31 g ai/ha Postemergence) | Plant response rating (0 to 100 scale), Galium ([7]; 125 g ai/ha Postemergence) | Horseweed plant response rating ([8]; 31 g ai/ha Postemergence) | Plant response rating (0 to 100 scale), Horseweed ([8]; 125 g ai/ha Postemergence) | Galium plant response rating ([7]; 125 g ai/ha Postemergence) | Horseweed plant response rating ([8]; 125 g ai/ha Postemergence)
CO/N=C1\CCN(c2cc(NS(=O)(=O)C(F)(F)F)c(C)cc2C)C1=O [Compound 9, 1,1,1-trifluoro-N-[5-[3-(methoxyimino)-2-oxo-1-pyrrolidinyl]-2,4-dimethylphenyl]methanesulfonamide] | 50 | 100 | 100 | 100 | 90 | 100 | 100 | 100 | 60 | 100 | 90 | 100 | 90 | 100 | 100 | 100 | – | –
Cc1cc(C)c(N2CC/C(=N\O)C2=O)cc1NS(=O)(=O)C(F)(F)F [Compound 10, 1,1,1-trifluoro-N-[5-[3-(hydroxyimino)-2-oxo-1-pyrrolidinyl]-2,4-dimethylphenyl]methanesulfonamide] | 30 | 90 | 80 | 100 | 90 | 100 | 50 | 100 | 50 | 100 | 90 | 100 | 100 | 100 | 80 | 90 | – | –
Cc1c(NS(=O)(=O)C(F)(F)F)cc(N2CCC(OC3CC3)C2=O)c(C)c1C (stereo not drawn) [Compound 47] | 30 | 90 | 100 | 100 | 80 | 100 | 100 | 100 | 50 | 90 | 90 | 100 | 80 | – | – | – | 90 | 100
Cc1c(N2CCC(OC3CCC3)C2=O)cc(N(C(=O)OCC(C)C)S(=O)(=O)C(F)(F)F)c(C)c1C (stereo not drawn) [Compound 48] | 20 | 60 | 80 | 100 | 50 | 80 | 100 | 100 | 60 | 100 | 30 | 80 | 90 | – | 70 | – | 100 | 90
Cc1c(N2CCC(OC3CC3)C2=O)cc(N(COC(=O)C(C)(C)C)S(=O)(=O)C(F)(F)F)c(C)c1C (stereo not drawn) [Compound 49] | 0 | 50 | 60 | 90 | 60 | 90 | 30 | 100 | 40 | 100 | 30 | 90 | 80 | – | – | – | 90 | 100
